This note sets out measurements from paper PMC8857485, “Prostate secretory protein 94 inhibits sterol binding and export by the mammalian CAP protein CRISP2 in a calcium-sensitive manner” (The Journal of Biological Chemistry, 2022).

Where a name gives a salt, the structure may show the parent alone.

By Kd is commonly meant the equilibrium constant for the complex coming apart.

One experiment addresses T1, Pry1 (Saccharomyces cerevisiae, UniProt P47032).
T1 construct: made in house; host or cells: E. coli BL21
The experiment can be described thus: Microscale thermophoresis (MST) binding to Pry1. The note with it: absence of PSP94, read-out: Kd, sterol binding by Pry1. The text has this:
To confirm the direct interaction of PSP94 with CRISP3 and to test whether PSP94 would also bind other CAP family members such as yeast Pry1, or CRISP2, we performed in vitro protein binding assay using microscale thermophoresis (MST). Therefore, PSP94 and the CAP family members, Pry1, CRISP2, and CRISP3, were expressed as fusion proteins with a C-terminal polyhistidine tag in Escherichia coli, and the proteins were affinity purified on nickel-NTA agarose beads. The purified CAP proteins were then fluorescently labeled using RED-tris-NTA and incubated with varying concentrations of PSP94. […] PSP94 thus has high binding affinity for all three CAP proteins tested, and it also binds the CAP domain of Pry1 (Pry1^CAP) alone.
DNA encoding proteins of interest were PCR amplified and cloned into NcoI and XhoI restriction sites of pET22b, which contains a PelB signal sequence to direct the secretion of expressed protein into the periplasmic space. […] Protein concentration was determined by Lowry assay using the Folin reagent and bovine serum albumin as protein standard.
(§1) MST experiments were performed to assess protein–protein, protein–lipid, and protein–calcium interactions using a Monolith NT.115 (Nanotemper Technologies). […] The dissociation constant Kd was obtained by plotting the normalized fluorescence (Fnorm) against the logarithm of ligand concentration. […]

In another experiment the target is T2, CRISP2^N97P Y99P (Homo sapiens, UniProt P16562, N97P/Y99P).
T2 construct: made in house; host or cells: E. coli
T2 sequence (P16562 22-243 N97P/Y99P): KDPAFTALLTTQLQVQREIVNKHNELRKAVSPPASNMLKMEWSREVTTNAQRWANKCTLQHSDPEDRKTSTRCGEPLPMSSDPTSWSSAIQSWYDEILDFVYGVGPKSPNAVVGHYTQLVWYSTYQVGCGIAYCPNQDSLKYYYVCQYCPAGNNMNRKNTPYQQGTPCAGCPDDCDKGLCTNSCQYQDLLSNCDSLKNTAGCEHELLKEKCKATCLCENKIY
In words: MST binding to CRISP2 double mutant N97P Y99P. Also noted: species or system mammalian. The note with it: absence of PSP94, read-out: Kd, sterol binding by CRISP2^N97P Y99P. How it is done: Next, we generated all three double mutant combinations of CRISP2: N97P L98G, N97P Y99P, and L98G Y99P. These three double mutant versions of CRISP2 were again expressed as His-tagged proteins in E. coli and purified, and their capacity to bind sterols in the presence or absence of PSP94 was assessed by MST. […] The capacity of the CRISP2^L98G Y99P double mutant to bind sterols even in the presence of PSP94 was confirmed by the in vivo sterol export assay (Fig. 6, A and B). When expressed in yeast cells, the CRISP2^L98G Y99P double mutant was stably expressed and secreted as monitored by Western blotting (Fig. 6C).
MST experiments were performed to assess protein–protein, protein–lipid, and protein–calcium interactions using a Monolith NT.115 (Nanotemper Technologies). Proteins were labeled using the RED-tris-NTA His tag protein labeling kit. Labeled CAP proteins, 100 nM, were mixed with a serial dilution of unlabeled PSP94, PSP9^F24G, cholesterol sulfate, or calcium chloride, prepared in binding buffer (20 mM Tris pH 7.5, 30 mM NaCl, 0.05% Triton X-100). Samples were loaded into MST standard capillaries, and MST measurements were performed using an 80% laser power setting. The dissociation constant Kd was obtained by plotting the normalized fluorescence (Fnorm) against the logarithm of ligand concentration. […]

Another experiment addresses T3, CRISP2 N97P (Homo sapiens, UniProt P16562, N97P).
T3 construct: made in house; host or cells: E. coli
The experiment can be described thus: MST binding to CRISP2 single mutant N97P. The settings on record: absence of PSP94, read-out: Kd, sterol binding by CRISP2 N97P. Also noted: species or system mammalian.
Description: (§2) This interaction is thus located outside the hydrophobic loop that harbors the sterol-binding CBM. Based on these structural considerations, it is thus not apparent why and how the interaction between PSP94 and CRISP2 would block sterol binding at the CBM. To investigate this question in more detail, we first performed computational docking studies to identify residues in CRISP2 that are critical for the interaction with PSP94. […] Two of these three interacting residues, N97 and L98, are conserved in all three CAP family members tested here, CRISP2, CRISP3, and Pry1 (Fig. 4A). […]
as §1
(§3) Quadruple mutant cells lacking the acyl-CoA synthetases FAA1 and FAA4 and the yeast CAP family members PRY1 and PRY3 (faa1∆ faa4∆ pry1∆ pry3∆) expressing different combinations of plasmid-borne copies of PRY1, CRISP2, and or PSP94, or their respective empty vectors (pRS423 or pRS426) were cultivated overnight. The export of fatty acids into the culture medium was then quantified. […]

For another experiment, the target named is T4, CRISP2 Y99P (Homo sapiens, UniProt P16562, Y99P).
T4 construct: made in house; host or cells: E. coli
T4 sequence (P16562 22-243 Y99P): as the sequence (P16562 22-243 N97P/Y99P) above, with P76N counted along it
The experiment can be described thus: MST binding to CRISP2 single mutant Y99P. Also noted: species or system mammalian. The note with it: absence of PSP94, read-out: Kd, sterol binding by CRISP2 Y99P.
Description: as §2, §1, §3

T1 sequence (P47032 20-299): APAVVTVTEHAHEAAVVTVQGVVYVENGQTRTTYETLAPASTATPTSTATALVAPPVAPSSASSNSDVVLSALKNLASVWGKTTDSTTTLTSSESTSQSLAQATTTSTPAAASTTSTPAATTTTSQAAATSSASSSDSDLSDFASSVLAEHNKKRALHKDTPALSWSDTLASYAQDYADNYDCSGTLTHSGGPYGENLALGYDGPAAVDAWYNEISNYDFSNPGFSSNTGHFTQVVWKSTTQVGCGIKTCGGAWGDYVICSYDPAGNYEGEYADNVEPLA
T3 sequence (P16562 22-243 N97P): as the sequence (P16562 22-243 N97P/Y99P) above, with P78Y counted along it

`CC(C)CCC[C@@H](C)[C@H]1CC[C@H]2[C@@H]3CC=C4C[C@@H](OS(=O)(=O)O)CC[C@]4(C)[C@H]3CC[C@]12C` [cholesterol sulfate]: the Kd on Pry1 came out at 3000 ± 1700 nM; at CRISP2^N97P Y99P, 2700 ± 2300 nM; at CRISP2 N97P, 3100 ± 1500 nM; at CRISP2 Y99P, 2500 ± 900 nM.
